Measurements reported in patent US12077568B2 (University of Houston System, priority 2018, dated 2024).

What was measured:
[1] = test system: normal mice; experiment: Lowering of blood glucose level in normal mice; format: in vivo; details: intraperitoneal, 20-24 μg/mouse
Procedure: FIGS. 7A-B. Effect of SPC-insulins on lowering blood glucose level in vivo. The purified yeast-(FIG. 7A) or E. coli-(FIG. 7B) expressed SPC-insulin-P (p-insulin) and SPC-insulin-PP (2p-insulin) (20-24 μg/mouse) was injected (intraperitoneally) into normal mice. The glucose levels of the blood collected from tail vein at the increasing time points were measured using Contour^next One glucose meter (n=6). Humulin R (20-24 μg/mouse) was used as a positive control (n=6, M±SE). The mice were under normal diets.
FIGS. 8A-B. (FIG. 8A) Effect of SPC-insulins on lowering blood glucose level of normal mice using subcutaneous injection. The yeast-expressed SPC-insulin-P (p-insulin) and SPC-insulin-PP (2p-insulin) (20-30 μg/mouse) was injected subcutaneously into the normal mice (n=6). (FIG. 8B) Effects of the purified E. coli-expressed SPC-insulins on lowering blood glucose level of STZ-induced type-1 diabetic mice. 20-30 μg/mouse of the purified E. coli-expressed SPC-P (P-insulin) or SPC-insulin-PP (PP-insulin) was intraperitoneally injected into the STZ-induced Type-1 diabetic mice (with an elevated blood glucose levels of 370-400 mg/dl, n=6). The glucose levels of the blood collected from the mouse tail vein at the increasing time points were measured using Contour^next One glucose meter. Humulin R (20-24 μg/mouse) was used as a positive control (n=6, M±SE). […]

[2] = test system: STZ-induced type-1 diabetic mice; experiment: Lowering of blood glucose level in STZ-induced type-1 diabetic mice; format: in vivo; details: intraperitoneal, 20-30 μg/mouse; for start of working after injection: purified E. coli-expressed
Procedure: FIGS. 8A-B. (FIG. 8A) Effect of SPC-insulins on lowering blood glucose level of normal mice using subcutaneous injection. The yeast-expressed SPC-insulin-P (p-insulin) and SPC-insulin-PP (2p-insulin) (20-30 μg/mouse) was injected subcutaneously into the normal mice (n=6). (FIG. 8B) Effects of the purified E. coli-expressed SPC-insulins on lowering blood glucose level of STZ-induced type-1 diabetic mice. 20-30 μg/mouse of the purified E. coli-expressed SPC-P (P-insulin) or SPC-insulin-PP (PP-insulin) was intraperitoneally injected into the STZ-induced Type-1 diabetic mice (with an elevated blood glucose levels of 370-400 mg/dl, n=6). The glucose levels of the blood collected from the mouse tail vein at the increasing time points were measured using Contour^next One glucose meter. Humulin R (20-24 μg/mouse) was used as a positive control (n=6, M±SE). STZ-Control=oval; Hummulin R=rectangle; SPC-Insulin-P=upward pointing triangle; SPC-Insulin-PP=downward pointing triangle.
The second animal model is the STZ-induced type-1 diabetic mouse. The mice received STZ injection quickly developed into type 1 diabetes because STZ destroyed the insulin-producing cells in pancreas and elevated the glucose level (FIGS. 8A-B, blood glucose level labeled with STZ). The both of the purified SPC-insulin-P and -PP were tested on the diabetic mice. Similar to that of the normal mice, the SPC-insulins started working around 1-1.5 hours after injection, reached to the best therapeutic effects around 4 hours, and then last for 24-48 hours (FIGS. 8A-B).

[3] = commercial insulins; cited from earlier work

Row | Substance | duration of blood glucose lowering effect [1] [h] | duration of effect [2] [h] | time to best therapeutic effect [2] | start of working after injection [2] [h] | duration of action [3] [h]
1 | Humulin R: commercial regular human insulin, two-chain, used as positive control | 4 to 8 |  |  |  | 
2 | SPC-insulin-P: single polypeptide chain human insulin, b-chain C-terminus linked to a-chain N-terminus by one proline residue |  | 24 to 48 | around 4 hours | 1 to 1.5 | 
3 | SPC-insulin-PP: single polypeptide chain human insulin, b-chain linked to a-chain by two proline residues |  | 24 to 48 | around 4 hours | 1 to 1.5 | 
4 | insulin Detemir |  |  |  |  | 18 to 24
5 | insulin Glargine |  |  |  |  | 18 to 24
